{"source": "patent US20070197559A1", "about": "“Aryl substituted purine analogues” (priority 2004, published 2007)"}
{"molecular_target": "T1, human capsaicin receptor (Homo sapiens, UniProt Q8NER1)", "T1 construct": "transfected with the pBK-CMV expression construct encoding the full length human capsaicin receptor; expressed in transfected cells", "T1 sequence (Q8NER1 whole entry)": "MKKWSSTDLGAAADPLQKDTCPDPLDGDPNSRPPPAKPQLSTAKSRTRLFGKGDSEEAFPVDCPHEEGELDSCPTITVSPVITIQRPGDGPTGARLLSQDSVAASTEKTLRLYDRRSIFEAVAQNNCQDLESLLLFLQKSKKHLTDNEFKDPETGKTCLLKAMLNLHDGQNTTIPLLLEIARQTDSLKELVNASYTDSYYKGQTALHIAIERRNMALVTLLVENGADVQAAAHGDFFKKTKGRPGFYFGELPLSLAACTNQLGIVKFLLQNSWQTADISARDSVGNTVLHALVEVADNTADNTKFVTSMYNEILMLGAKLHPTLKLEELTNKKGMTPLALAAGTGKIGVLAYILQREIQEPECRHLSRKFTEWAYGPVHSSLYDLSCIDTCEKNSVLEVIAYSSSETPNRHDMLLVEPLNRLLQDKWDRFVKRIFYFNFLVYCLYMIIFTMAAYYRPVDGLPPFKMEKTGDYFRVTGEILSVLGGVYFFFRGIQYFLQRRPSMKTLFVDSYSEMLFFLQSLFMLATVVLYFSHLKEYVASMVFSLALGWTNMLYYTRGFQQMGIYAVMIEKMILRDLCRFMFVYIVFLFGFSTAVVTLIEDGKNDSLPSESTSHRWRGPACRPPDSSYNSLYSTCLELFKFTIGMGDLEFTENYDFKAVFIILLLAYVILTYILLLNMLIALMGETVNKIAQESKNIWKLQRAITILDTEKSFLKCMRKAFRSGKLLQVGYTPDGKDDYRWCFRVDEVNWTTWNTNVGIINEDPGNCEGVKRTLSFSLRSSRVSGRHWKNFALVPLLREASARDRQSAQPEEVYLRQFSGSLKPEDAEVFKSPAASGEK", "experiment": "Calcium mobilization assay, determination of antagonist activity", "format": "cell-based", "settings": "cells expressing human capsaicin receptor, capsaicin-induced fluorescence response, Example 6", "method": "A cDNA encoding full length human capsaicin receptor (SEQ ID NO:1, 2 or 3 of U.S. Pat. No. 6,482,611) is subcloned in the plasmid pBK-CMV (Stratagene, La Jolla, Calif.) for recombinant expression in mammalian cells.\nHuman embryonic kidney (HEK293) cells are transfected with the pBK-CMV expression construct encoding the full length human capsaicin receptor using standard methods. The transfected cells are selected for two weeks in media containing G418 (400 μg/ml) to obtain a pool of stably transfected cells. Independent clones are isolated from this pool by limiting dilution to obtain clonal stable cell lines for use in subsequent experiments.\nCells transfected with expression plasmids (as described in Example 4) and thereby expressing human capsaicin receptor are seeded and grown to 70-90% confluency in FALCON black-walled, clear-bottomed 96-well plates (#3904, BECTON-DICKINSON, Franklin Lakes, N.J.). The culture medium is emptied from the 96 well plates and FLUO-3 AM calcium sensitive dye (Molecular Probes, Eugene, Oreg.) is added to each well (dye solution: 1 mg FLUO-3 AM, 440 μL DMSO and […] pluronic acid in DMSO, diluted 1:250 in Krebs-Ringer HEPES (KRH) buffer (25 mM HEPES, 5 mM KCl, 0.96 mM NaH2PO4, 1 mM MgSO4, 2 mM CaCl2, 5 mM glucose, 1 mM probenecid, pH 7.4), 50 μl diluted solution per well). Plates are covered with aluminum foil and incubated at 37° C. for 1-2 hours in an environment containing 5% CO2. After the incubation, the dye is emptied from the plates, and the cells are washed once with KRH buffer, and resuspended in KRH buffer.\nTo measure the ability of a test compound to agonize or antagonize a calcium mobilization response in cells expressing capsaicin receptors to capsaicin or other vanilloid agonist, the EC50 of the agonist capsaicin is first determined. An additional 20 μl of KRH buffer and 1 μl DMSO is added to each well of cells, prepared as described above. 100 μl capsaicin in KRH buffer is automatically transferred by the FLIPR instrument to each well. Capsaicin-induced calcium mobilization is monitored using either FLUOROSKAN ASCENT (Labsystems; Franklin, Mass.) or FLIPR (fluorometric imaging plate reader system; Molecular Devices, Sunnyvale, Calif.) instruments. Data obtained between 30 and 60 seconds after agonist application are used to generate an 8-point concentration response curve, with final capsaicin concentrations of 1 nM to 3 μM. KALEIDAGRAPH software (Synergy Software, Reading, Pa.) is used to fit the data to the equation: y=a*(1/(1+(b/x)^c)) to determine the 50% excitatory concentration (EC50) for the response. In this equation, y is the maximum fluorescence signal, x is the concentration of the agonist or antagonist (in this case, capsaicin), a is the Emax, b corresponds to the EC50 value and c is the Hill coefficient. Determination of Agonist Activity\nTest compounds are dissolved in DMSO, diluted in 20 μl KRH buffer so that the final concentration of test compounds in the assay well is between 1 μM and 5 μM, and added to cells prepared as described above. The 96 well plates containing prepared cells and test compounds are incubated in the dark, at room temperature for 0.5 to 6 hours. It is important that the incubation not continue beyond 6 hours. Just prior to determining the fluorescence response, 100 μl capsaicin in KRH buffer at twice the EC50 concentration determined as described above is automatically added by the FLIPR instrument to each well of the 96 well plate for a final sample volume of 200 μl and a final capsaicin concentration equal to the EC50. The final concentration of test compounds in the assay wells is between 1 μM and 5 μM. […] The concentration of antagonist required to provide a 50% decrease, relative to the response observed in the presence of capsaicin and without antagonist, is the IC50 for the antagonist, and is preferably below 1 micromolar, 100 nanomolar, 10 nanomolar or 1 nanomolar.", "units": {"IC50": "nM"}}
{"smiles": "CC(C)(C)c1ccc(Nc2ncnc3c2cnn3-c2ncccc2Cl)cc1", "note": "[(4-tert-Butyl-phenyl)-[1-(3-chloro-pyridin-2-yl)-1H-pyrazolo[3,4-d]pyrimidin-4-yl]-amine]", "IC50": "≤ 1000"}
{"smiles": "FC(F)(F)c1ccc(Nc2ncnc3c2ncn3-c2cccc(Cl)c2)cc1", "note": "[[9-(3-Chloro-phenyl)-9H-purin-6-yl]-(4-trifluoromethyl-phenyl)-amine]", "IC50": "≤ 1000"}
{"smiles": "CC(C)(C)c1ccc(Nc2ncnc3c2ncn3-c2ccccc2Cl)cc1", "note": "[(4-tert-Butyl-phenyl)-[9-(2-chloro-phenyl)-9H-purin-6-yl]-amine]", "IC50": "≤ 1000"}
{"smiles": "CC(C)(C#N)c1ccc(Nc2ncnc3c2ncn3-c2cccc(Cl)c2)cc1", "note": "[2-{4-[9-(3-Chloro-phenyl)-9H-purin-6-ylamino]-phenyl}-2-methyl-propionitrile]", "IC50": "≤ 1000"}
{"smiles": "CC(C)(C)c1ccc(Nc2ncnc3c2ncn3Cc2ccccc2Cl)cc1", "note": "[(4-tert-Butyl-phenyl)-[9-(2-chloro-benzyl)-9H-purin-6-yl]-amine]", "IC50": "≤ 1000"}
{"smiles": "FC(F)(F)c1ccc(Nc2ncnc3c2cnn3-c2ncccc2Cl)cc1", "note": "[[1-(3-Chloro-pyridin-2-yl)-1H-pyrazolo[3,4-d]pyrimidin-4-yl]-(4-trifluoromethyl-phenyl)-amine]", "IC50": "≤ 1000"}
{"smiles": "C[C@@H]1CN(Cc2nc(Nc3ccc(C(F)(F)F)cc3)c3cnn(-c4ccccc4Cl)c3n2)C[C@H](C)O1", "note": "[[1-(2-Chloro-phenyl)-6-(2,6-dimethyl-morpholin-4-ylmethyl)-1H-pyrazolo[3,4-d]pyrimidin-4-yl]-(4-trifluoromethyl-phenyl)-amine]", "IC50": "≤ 1000"}
{"smiles": "O=S(=O)(c1ccc(Nc2ncnc3c2cnn3-c2ccccc2Cl)cc1)C(F)(F)F", "note": "[[1-(2-Chloro-phenyl)-1H-pyrazolo[3,4-d]pyrimidin-4-yl]-(4-trifluoromethanesulfonyl-phenyl)-amine]", "IC50": "≤ 1000"}
{"smiles": "CC(C)COCc1nc(Nc2ccc(C(C)C)cc2)c2cnn(-c3ccccc3Cl)c2n1", "note": "[[1-(2-Chloro-phenyl)-6-isobutoxymethyl-1H-pyrazolo[3,4-d]pyrimidin-4-yl]-(4-isopropyl-phenyl)-amine]", "IC50": "≤ 1000"}
{"smiles": "CC(C)COCc1nc(Nc2ccc(C(F)(F)F)cc2)c2cnn(-c3ccccc3Cl)c2n1", "note": "[[1-(2-Chloro-phenyl)-6-isobutoxymethyl-1H-pyrazolo[3,4-d]pyrimidin-4-yl]-(4-trifluoromethyl-phenyl)-amine]", "IC50": "≤ 1000"}
{"smiles": "Clc1ccc(Nc2ncnc3c2ncn3-c2cccc(Cl)c2)cc1", "note": "[(4-Chloro-phenyl)-[9-(3-chloro-phenyl)-9H-purin-6-yl]-amine]", "IC50": "≤ 1000"}
{"smiles": "N#Cc1ccc(Nc2ncnc3c2ncn3-c2cccc(Cl)c2)cc1", "note": "[4-[9-(3-Chloro-phenyl)-9H-purin-6-ylamino]-benzonitrile]", "IC50": "≤ 1000"}
{"smiles": "C[C@@H]1CN(Cc2nc(Nc3ccc(C(C)(C)C)cc3)c3cnn(-c4ccccc4Cl)c3n2)C[C@H](C)O1", "note": "[(4-tert-Butyl-phenyl)-[1-(2-chloro-phenyl)-6-(2,6-dimethyl-morpholin-4-ylmethyl)-1H-pyrazolo[3,4-d]pyrimidin-4-yl]-amine]", "IC50": "≤ 1000"}
{"smiles": "CC(C)(C)c1ccc(Nc2ncnc3c2ncn3-c2cccc(Cl)c2)cc1", "note": "[(4-tert-Butyl-phenyl)-[9-(3-chloro-phenyl)-9H-purin-6-yl]-amine]", "IC50": "≤ 1000"}
{"smiles": "CC(C)COCc1nc(Nc2ccc(C(C)(C)C)cc2)c2cnn(-c3ccccc3Cl)c2n1", "note": "[(4-tert-Butyl-phenyl)-[1-(2-chloro-phenyl)-6-isobutoxymethyl-1H-pyrazolo[3,4-d]pyrimidin-4-yl]-amine]", "IC50": "≤ 1000"}
{"smiles": "FC(F)(F)c1ccc(Nc2ncnc3c2ncn3Cc2ccccc2Cl)cc1", "note": "[[9-(2-Chloro-benzyl)-9H-purin-6-yl]-(4-trifluoromethyl-phenyl)-amine]", "IC50": "≤ 1000"}
{"smiles": "Cc1nc2c(Nc3ccc(C(C)(C)C)cc3)ncnc2n1-c1ccccc1Cl", "note": "[(4-tert-Butyl-phenyl)-[9-(2-chloro-phenyl)-8-methyl-9H-purin-6-yl]amine]", "IC50": "≤ 1000"}
{"smiles": "CC(C)COCc1nc(Nc2ccc(C(C)(C)C#N)cc2)c2cnn(-c3ccccc3Cl)c2n1", "note": "[2-{4-[1-(2-Chloro-phenyl)-6-isobutoxymethyl-1H-pyrazolo[3,4-d]pyrimidin-4-ylamino]-phenyl}-2-methyl-propionitrile]", "IC50": "≤ 1000"}
{"molecular_target": "vanilloid receptor (VR) (Homo sapiens, UniProt Q8NER1)", "sequence (Q8NER1 whole entry)": "as above", "experiment": "not given", "settings": "typical value, background; read-out: Ki value (binding to VR); cited from earlier work", "units": {"Ki": "nM"}}
{"smiles": "Cl.Cl.Cl.Cl.Cl.Cl.N.N.N.N.N.N.N.N.N.N.N.N.N.N.[O-2].[O-2].[Ru+3].[Ru+3].[Ru+4]", "note": "[ruthenium red]", "Ki": "≥ 140000"}
